Measured values published in US6887886B2, “Therapeutic compositions comprising excess enantiomer” (Pfizer Inc., priority 2000, dated 2005).
Several values for one entry are separate records, joined by “and”; a condition that tells them apart may be missing. Equal entries are not always repeated.

Assays:
[1] = system: hypoxic Langendorff mouse hearts; test: hypoxic Langendorff mouse hearts perfused with enantiomer: myocardial glucose uptake and time to cessation of beating; conditions: hypoxic heart, 10^−7M solution
[2] = system: vascular smooth muscle cell; conditions: in vitro; cited from earlier work
canine myocardium = test: cardiac oxygen consumption in canine myocardium in vitro; type: cell-based
[3] = system: canine coronary microvessels, epicardial coronary artery and aorta; test: nitrite production (vascular NO release) in canine coronary microvessels, epicardial coronary artery and aorta; type: cell-based
calcium channel = conditions: cited from earlier work
[4] = in vivo; cited from earlier work
[5] = identical study, increasing concentrations

SMILES	increase in survival time [1]	reduction in myocardial glucose uptake [1]	time to cessation of beating (TCB) ([1]; untreated 9 minutes)	myocardial glucose uptake (MGU) ([1]; untreated hypoxic 0.57, normoxic 0.36)	PDGF-induced vascular smooth muscle cell migration [2]	effect of NO synthase inhibitor L-NAME on the reduction in oxygen consumption (canine myocardium)	reduction in oxygen consumption (canine myocardium; enantiomer concentration of 10^−5M)	effect of NO synthase inhibitor L-NAME on the increase in nitrite production [3]	concentration-dependent increase in nitrite production, up to ([3]; enantiomer concentration of 10^−9M)	free concentration at which maximum NO release as measured by nitrite production was observed ([3]; free concentration)	calcium channel-blocking activity of the racemate resides in (calcium channel)	dose in excess of which adverse effects arise (marked and sustained fall in blood pressure, reduced coronary blood flow) [4]	reduction in oxygen consumption (in words) (canine myocardium; [5])	nitrite production (in words) [3, 5]
CCOC(=O)C1=C(COCCN)NC(C)=C(C(=O)OC)[C@H]1c1ccccc1Cl (single isomer, unassigned) [R(+) enantiomer]	three-fold	over 50%	about 33 minutes	0.27 μg/min.mg	inhibit	wholly or partly blocked	about 30%	wholly or partly blocked	about 65 pmol/mg	10^−9 M and 0.4 ng/ml	–	–	–	–
CCOC(=O)C1=C(COCCN)NC(C)=C(C(=O)OC)[C@@H]1c1ccccc1Cl (single isomer, unassigned) [S(−) enantiomer]	–	–	–	–	–	not blocked	–	–	–	–	largely, but not exclusively	> 0.5 mg/kg	a reduction in oxygen consumption was observed	no evidence of nitrite production
